The test system of one assay is beef liver ALP. Put plainly: Solution assay for alkaline phosphatase (fluorescence). Conditions: excitation 535 nm, emission 580 nm. The format is biochemical. As to the method: A solution was prepared using the substrate of Example 1 (10^-5 molar), magnesium acetate ([…]) and TRIS buffer (0.1 molar, pH 8.5). One milliliter of this solution was placed in each of two test cells. To one cell was added beef liver ALP (100 μl, 10^-5 molar). No ALP was placed in the second cell.
The relative fluorescence of the solution in the test cell containing the ALP-hydrolyzed substrate was measured at an excitation of 535 nm and an emission of 580 nm. […]

The test system of assay [1] is calf intestine alkaline phosphatase. The experiment in a line: Kinetic study of alkaline phosphatase with substrate (double reciprocal plot). The conditions noted are these: 540 nm, substrate 0.1-10 mmolar, enzyme 0.01 I.U./ml, sodium carbonate 100 mmolar, pH 10. The format is biochemical. An excerpt: The magnesium salt substrate prepared in Example 1 was used to determine reaction rates and kinetic parameters for alkaline phosphatase at 540 nm. The study was done by using the substrate (concentration range 0.1 mmolar to 10 mmolar), calf intestine alkaline phosphatase (0.01 I.U./ml), sodium carbonate (100 mmolar, pH 10), magnesium chloride (1 mmolar) and zinc perchlorate (1 mmolar). From the data obtained, a double reciprocal plot was drawn.

Where a name gives a salt, the structure may show the parent alone.

As for `O=C1C=Cc2ccc(OP(=O)(O)O)c3cccc1c23` [substrate of Example 1, PHENALENONE-6-PHOSPHATE], the “relative fluorescence of unhydrolyzed substrate” value with beef liver ALP (no ALP added) is given as “Minimal fluorescence”. Moreover, in the assay on beef liver ALP (substrate 10^-5 molar, TRIS 0.1 molar pH 8.5, with beef liver ALP), the “relative fluorescence of ALP-hydrolyzed substrate” value is given as “rapid generation of fluorescence”.
On to `O=C1C=Cc2ccc(OP(=O)(O)O)c3cccc1c23` [phenalenone-6-phosphate magnesium salt], for which the “rate of reaction (Vmax)” value in assay [1] is 0.029 absorbance (A) units/minute. Further, the Km in assay [1] (MgCl2 1 mmolar, zinc perchlorate 1 mmolar, read-out: Michaelis constant (Km)) was 1400 µM.

The record behind these values is patent US4803157A, “Hydrolyzable fluorescent substrates for phosphatases and analytical use thereof” (Eastman Kodak Company, priority 1986, dated 1989).
